This data set is described as follows: Mouse PET/CT time activity curves. Type of data set: in vivo, CD-1 wild type mice. How it is done:
Dynamic Micro-Positron Emission Tomography (mPET) images are obtained from CD-1 wild type mice using 3-(3-[18F]-fluoroazetidin-1-yl)-8-methylbenzo[4,5]imidazo[1,2-a]pyridine. Micro-Computed Tomography (mCT) of each subject is used as anatomical reference for image analysis. Biodistribution of the tracer in brain, muscle, bone, liver, and kidney is assessed by generating Time Activity Curves (TAC) using the fused mPET/mCT images. An INVEON multimodality scanner (Siemens, Germany) is used for mPET/mCT. All animal work is performed in accordance with the University of Sciences Institutional Animal Care & Use Committee-approved procedures.
Animals are anesthetized with 3% isoflurane/97% oxygen and are placed on the scanner bed. A short high-resolution CT scan is first performed for anatomical registration, followed by a 120-minute PET scan. During the PET scan a water heating system is placed underneath the bed to help maintain the body temperature. Within 3 minutes after the beginning of the PET acquisition, the [18F]-labeled compound 3-(3-[18F]-fluoroazetidin-1-yl)-8-methylbenzo[4,5]imidazo[1,2-a]pyridine is administered to the animals via tail vein injection (250 uCi in a total volume of 200 uL saline). A PET image is generated for each minute of the acquisition time. Uptake of the tracer is obtained by visually drawing regions of interest based on the fused PET/CT images, and the corresponding activity values are determined using the INVEON Research Workplace software (Siemens, Germany). All values are represented as percent injected dose per gram (% ID/g).
The mouse PET/CT time activity curves of 3-(4-(2-[18F]-fluoroethyl)piperidin-1-yl)-8-methoxybenzo[4,5]imidazo[1,2-a]pyridine (T821) (See FIG. 9) and of 3-(4-[18F]-fluoropiperidin-1-yl)-8-methoxybenzo[4,5]imidazo[1,2-a]pyridine (T798) (See FIG. 10) are obtained as described in Assay Example 7 (T821 and T798 are recited in US2011/0182812). […] Therefore, when imaging with T821 and/or T798, the undesirable non-tau PET signals from the skull bones could interfere with desired tau signals from the brain cortex. Thus, in addition to the lack of selectivity for T821 and T798, these compounds would further represent poor candidates for human brain tau PET tracers because of the interfering radioactivity signal from bone. […] The advantageous properties of Compound 8 are useful to provide enhanced tau PET imaging in humans. This combination of critical properties was not known and could not have been predicted from existing tau imaging compounds.

[1] abbreviates: mouse PET/CT time activity curves.
Setting [2] is: tail vein injection, 120-minute PET scan.

In the case of `Cc1ccc2nc3cc(N4CC([18F])C4)ccn3c2c1` [Compound 8, 3-(3-[18F]-fluoroazetidin-1-yl)-8-methylbenzo[4,5]imidazo[1,2-a]pyridine], under setting [1], the “bone uptake of radioactivity” value is recorded as “negligible radioactivity signal in bone”; the “brain uptake compared to T821 and T798” value is “significantly superior and surprising brain uptake”. Besides, the “bone uptake of radioactivity” value (mouse PET/CT time activity curves, listed as 3-(3-[18F]-Fluoroazetidin-1-yl)-8-methylbenzo[4,5]imidazo[1,2-a]pyridine) is “no significant uptake of radioactivity in bone tissue”. Besides, under setting [2], the “brain entry compared with [18F]AV-1451” value was “higher % ID/g than [18F]AV-1451” and the clearance from brain entry was “cleared quickly”.

Source of the values: US10301308B2, “Azetidine derivatives for tau imaging” (Eli Lilly and Company, priority 2015, dated 2019).
